Laboratory results as given in patent publication US10414759B2, “Phenylthiazoles and uses thereof” (Purdue Research Foundation, priority 2017, dated 2019).
Values after ≈ are worked out from the molar mass of the structure shown. Like-named read-outs stand apart in the source and are kept apart here.

Assays:
[1] = tested on: MRSA (2658 RCMB); experiment: MIC against MRSA (2658 RCMB), broth dilution; assay type: cell-based, Staphylococcus aureus; settings: for MIC: Staphylococcus aureus
Method: Bacteria were cultured in cation-adjusted Mueller Hinton broth in a 96-well plate. Compounds, using triplicate samples, were added to the plate and serially diluted. […] Plates were visually inspected and the MIC was categorized as the concentration at which no visible growth of bacteria was observed. The average of triplicate MIC determinations is reported.
A bacterial solution equivalent to 0.5 McFarland standard was prepared and diluted in cation-adjusted Mueller-Hinton broth (CAMHB) to achieve a bacterial concentration of about 5×10^5 CFU/mL and seeded in 96-well plates. Enterococcus faecium was diluted in brain heart infusion broth. Enterococcus faecalis, Streptococcus pneumonia and Listeria monocytogenes were diluted in tryptone soya broth (TSB).

[2] = Metabolic stability in human liver microsomes; assay type: in vitro ADME; settings: pH 7.4, human liver microsomes, with NADPH, read-out: NADPH-dependent CLint
Method: The tested compounds were incubated in duplicate with human liver microsomes at 37° C. The reaction contained microsomal protein in 100 mM potassium phosphate, 2 mM NADPH, 3 mM MgCl2, pH 7.4. A control was run for each test agent omitting NADPH to detect NADPH-free degradation. At 0, 10, 20, 40, and 60 minutes, an aliquot was removed from each experimental and control reaction and mixed with an equal volume of ice-cold Stop Solution (methanol containing haloperidol, diclofenac, or other internal standard). Stopped reactions are incubated at least ten minutes at −20° C., and an additional volume of water was added. The samples were centrifuged to remove precipitated protein, and the supernatants were analyzed by LC/MS/MS to quantitate the remaining parent. Data are converted to % remaining by dividing by the time zero concentration value. Data are fit to a first-order decay model to determine half-life. Intrinsic clearance is calculated from the half-life and the protein concentrations: CLint=ln(2)/(T1/2 [microsomal protein]).

[3] = Table 7, initial screening, MRSA (2658 RCMB), read-out: minimum inhibitory concentration (MIC)
[4] = Table 7, initial screening, MRSA (2658 RCMB)
[5] = Table 1, MRSA (2658 RCMB), read-out: MIC ± SD

SMILES | melting point | MIC [1, 3] [µg/mL] | MIC [1, 5] [µg/mL] | also measured
CCCCc1ccc(-c2nc(C)c(-c3ccnc(NC(N)=S)n3)s2)cc1 [Compound 12, 1-{4-[2-(4-Butylphenyl)-4-methylthiazol-5-yl]pyrimidin-2-yl}thiourea] | 212 °C (dec.) | – | – | MIC ([1]; MRSA, read-out: MIC ± SD): > 25 µg/mL; antibacterial (anti-MRSA) activity, in words ([1]; Table 1): complete abolishment of the anti-MRSA activity
Cc1nc(-c2ccc(C(C)(C)C)cc2)sc1-c1ccnc(NC(=N)N)n1 [Compound 56, 1-(4-(2-(4-(tert-Butyl)phenyl)-4-methylthiazol-5-yl)pyrimidin-2-yl)guanidine] | – | 1.56 (≈ 4.26 µM) | – | –
Cc1nc(-c2ccc(C(C)(C)C)cc2)sc1-c1ccnc(N2CCCC2)n1 [Compound 42] | – | – | – | minimum inhibitory concentration (MIC) [1, 4]: >50 µg/mL
Cc1nc(-c2ccc(C(C)(C)C)cc2)sc1-c1ccnc(N2CC(O)C2)n1 [Compound 53, 1-(4-(2-(4-(tert-Butyl)phenyl)-4-methylthiazol-5-yl)pyrimidin-2-yl)azetidin-3-ol] | – | 6.25 (≈ 16.4 µM) | – | –
Cc1nc(-c2ccc(C(C)(C)C)cc2)sc1-c1ccnc(-c2cccnc2)n1 [Compound 43, 2-(4-(tert-Butyl)phenyl)-4-methyl-5-(2-(pyridin-3-yl)pyrimidin-4-yl)thiazole] | – | > 50 | – | –
CNc1nccc(-c2sc(-c3ccc(C(C)(C)C)cc3)nc2C)n1 [Compound 41, 4-(2-(4-(tert-Butyl)phenyl)-4-methylthiazol-5-yl)-N-methylpyrimidin-2-amine] | – | 25 (≈ 73.9 µM) | – | –
Cc1nc(-c2ccc(C3=CCCCCC3)cc2)sc1-c1ccnc(N)n1 [Compound 30, 4-{2-[4-(Cyclohept-1-en-1-yl)phenyl]-4-methylthiazol-5-yl}pyrimidin-2-amine] | 164 °C | – | 3.12 (≈ 8.61 µM) | –
Cc1nc(-c2ccc(C=C3CCCC3)cc2)sc1-c1ccnc(N)n1 [Compound 32, 4-{2-[4-(Cyclopentylidenemethyl)phenyl]-4-methylthiazol-5-yl}pyrimidin-2-amine] | 143 °C | – | 1.17 ± 0.19 (≈ 3.36 µM) | –
Cc1nc(-c2ccc(C(C)(C)C)cc2)sc1-c1ccnc(N(C)C)n1 [Compound 50, 4-(2-(4-(tert-Butyl)phenyl)-4-methylthiazol-5-yl)-N,N-dimethylpyrimidin-2-amine] | – | > 50 | – | –
CCCCc1ccc(-c2nc(C)c(-c3ccnc(-n4cccn4)n3)s2)cc1 [Compound 14, 2-(4-Butylphenyl)-5-[2-(1H-pyrazol-1-yl)pyrimidin-4-yl]-4-methylthiazole] | 163.7 °C | – | > 25 | antibacterial (anti-MRSA) activity, in words ([1]; Table 1): exhibited no antibacterial activity
Cc1nc(-c2ccc(C(C)(C)C)cc2)sc1-c1ccnc(N)n1 [Compound 40, 4-(2-(4-(tert-Butyl)phenyl)-4-methylthiazol-5-yl)pyrimidin-2-amine] | – | 6.25 (≈ 19.3 µM) | – | –
Cc1nc(-c2ccc(C(C)(C)C)cc2)sc1-c1ccnc(NC(=N)N2CCN(C)CC2)n1 [Compound 62, N-(4-(2-(4-(tert-Butyl)phenyl)-4-methylthiazol-5-yl)pyrimidin-2-yl)-4-methylpiperazine-1-carboximidamide] | – | 3.12 (≈ 6.94 µM) | – | –
Cc1nc(-c2ccc(I)cc2)sc1-c1ccnc(N)n1 [Compound 23, 4-[2-(4-Iodophenyl)-4-methylthiazol-5-yl]pyrimidin-2-amine] | – | – | > 25 | –
CCCCc1ccc(-c2nc(C)c(-c3ccnc(N4CCCC4)n3)s2)cc1 [Compound 15, 2-(4-Butylphenyl)-4-methyl-5-(2-(pyrrolidin-1-yl)pyrimidin-4-yl)thiazole] | 153.7 °C | – | > 25 | antibacterial (anti-MRSA) activity, in words ([1]; Table 1): lacks any antibacterial activity
Cc1nc(-c2ccc(C(C)(C)C)cc2)sc1-c1ccnc(N=C(N(C)C)N(C)C)n1 [Compound 59, N-2-(4-(2-(4-(tert-Butyl)phenyl)-4-methylthiazol-5-yl)pyrimidin-2-yl)-1,1,3,3-tetramethylguanidine] | – | – | – | minimum inhibitory concentration (MIC) [1, 4]: >50 µg/mL
Cc1nc(-c2ccc(/C=C/C3CCCC3)cc2)sc1-c1ccnc(N)n1 [Compound 34, (E)-4-{2-[4-(2-Cyclopentylvinyl)phenyl]-4-methylthiazol-5-yl}pyrimidin-2-amine] | 180.7 °C | – | 3.12 (≈ 8.61 µM) | –
CCCCc1ccc(-c2nc(C)c(-c3ccnc(N=C(N(C)C)N(C)C)n3)s2)cc1 [Compound 19, 2-{4-[42-(4-Butylphenyl)-4-methylthiazol-5-yl]pyrimidin-2-yl}-1,1,3,3-tetramethyl guanidine] | – | – | – | antibacterial (anti-MRSA) activity, in words ([1]; Table 1): revealed no antibacterial efficacy; MIC ± SD ([1]; Table 1, MRSA (2658 RCMB)): >25 µg/mL

SMILES | melting point | MIC [1, 3] [µg/mL] | MIC [1, 5] [µg/mL] | also measured
Cc1nc(-c2ccc(C(C)(C)C)cc2)sc1-c1ccnc(N2CCC2)n1 [Compound 51, 5-(2-(Azetidin-1-yl)pyrimidin-4-yl)-2-(4-(tert-butyl)phenyl)-4-methylthiazole] | – | > 50 | – | –
Cc1nc(-c2ccc(C=C3CCCCC3)cc2)sc1-c1ccnc(N)n1 [Compound 33, 4-{2-[4-(Cyclohexylidenemethyl)phenyl]-4-methylthiazol-5-yl}pyrimidin-2-amine] | 165 °C | – | – | MIC ([1]; MRSA, read-out: MIC ± SD): 1.56 µg/mL (≈ 4.3 µM)
CNC(=N)Nc1nccc(-c2sc(-c3ccc(C(C)(C)C)cc3)nc2C)n1 [Compound 57, 1-(4-(2-(4-(tert-Butyl)phenyl)-4-methylthiazol-5-yl)pyrimidin-2-yl)-3-methylguanidine] | – | 1.56 (≈ 4.1 µM) | – | –
CCCCc1ccc(-c2nc(C)c(-c3ccnc(NC(=N)N)n3)s2)cc1 [Compound 18, 2-(4-Butylphenyl)-5-(2-guanidinylpyrimidin-4-yl)-4-methylthiazole] | – | – | 1.56 (≈ 4.26 µM) | MIC ± SD ([1]; Table 1, MRSA (2658 RCMB)): 1.56 ± 0.10 µg/mL (≈ 4.26 µM)
Cc1nc(-c2ccc(/C=C/C3CCCCC3)cc2)sc1-c1ccnc(N)n1 [Compound 35, (E)-4-{2-[4-(2-Cyclohexylvinyl)phenyl]-4-methylthiazol-5-yl}pyrimidin-2-amine] | 189 °C | – | 3.12 (≈ 8.29 µM) | –
CCCCc1ccc(-c2nc(C)c(C(=O)/C=C/N(C)C)s2)cc1 [Compound 4, (E)-1-[2-(4-Butylphenyl)-4-methylthiazol-5-yl]-3-(dimethyl-amino)prop-2-en-1-one] | 105.4 °C | – | > 25 | –
CCCCc1ccc(-c2nc(C)c(-c3ccnc(NC)n3)s2)cc1 [Compound 9, 4-[2-(4-Butylphenyl)-4-methylthiazol-5-yl]-N-methylpyrimidin-2-amine] | 227 °C (dec.) | – | > 25 | antibacterial (anti-MRSA) activity, in words ([1]; Table 1): dramatically decreased the antibacterial activity
CCCCc1ccc(-c2nc(C)c(-c3ccn4ncnc4n3)s2)cc1 [Compound 16, 5-([1,2,4]Triazolo[1,5-a]pyrimidin-5-yl)-2-(4-butylphenyl)-4-methylthiazole] | – | – | > 25 | –
Cc1nc(-c2ccc(C3=CCC(C)C3)cc2)sc1-c1ccnc(N)n1 (stereo not drawn) [Compound 28, 4-{4-Methyl-2-[4-(4-methylcyclopent-1-en-1-yl)phenyl]thiazol-5-yl}pyrimidin-2-amine] | 141 °C | – | 3.8 ± 0.4 (≈ 10.9 µM) | –
Cc1nc(-c2ccc(C(C)(C)C)cc2)sc1-c1ccnc(NC(=N)N2CCCC2)n1 [Compound 60, N-(4-(2-(4-(tert-Butyl)phenyl)-4-methylthiazol-5-yl)pyrimidin-2-yl) pyrrolidine-1-carboximidamide] | – | 50 (≈ 119 µM) | – | –
Cc1nc(-c2ccc(C(C)(C)C)cc2)sc1-c1ccnc(NN)n1 [Compound 55, 2-(4-(tert-Butyl)phenyl)-5-(2-hydrazinylpyrimidin-4-yl)-4-methylthiazole] | – | 1.56 (≈ 4.6 µM) | – | –
CC(=O)CC(c1ccccc1)c1c(O)c2ccccc2oc1=O (stereo not drawn) [Warfarin, warfarin, reference compound] | – | – | – | microsomal CLint [2]: 0.3 µL/min/mg
CCCCc1ccc(-c2nc(C)c(-c3ccnc(NC#N)n3)s2)cc1 [Compound 10, N-{4-[2-(4-Butylphenyl)-4-methylthiazol-5-yl]pyrimidin-2-yl}cyanamide] | 118 °C | – | 18.7 ± 2.3 (≈ 53.5 µM) | antibacterial (anti-MRSA) activity, in words ([1]; Table 1): dramatically decreased the antibacterial activity
Cc1nc(-c2ccc(C(C)(C)C)cc2)sc1-c1ccnc(N2CCOCC2)n1 [Compound 52, 4-(4-(2-(4-(tert-Butyl)phenyl)-4-methylthiazol-5-yl)pyrimidin-2-yl) morpholine] | – | 25 (≈ 63.4 µM) | – | –
Cc1nc(-c2ccc(C3=CCCCCCC3)cc2)sc1-c1ccnc(N)n1 [Compound 31, 4-{2-[4-(Cyclooct-1-en-1-yl)phenyl]-4-methylthiazol-5-yl}pyrimidin-2-amine] | 188 °C | – | 5.6 ± 0.1 (≈ 14.9 µM) | –
CCCCc1ccc(-c2nc(C)c(-c3ccnc(-c4cccnc4)n3)s2)cc1 [Compound 13, 2-(4-Butylphenyl)-4-methyl-5-[2-(38yridine-3-yl)pyrimidin-4-yl]thiazole] | – | – | – | antibacterial (anti-MRSA) activity, in words ([1]; Table 1): exhibited no antibacterial activity; MIC ± SD ([1]; Table 1, MRSA (2658 RCMB)): 17.2 ± 0.4 µg/mL (≈ 44.5 µM)
